According to patent US8383637B2, “2-amino-quinazoline derivatives useful as inhibitors of β-secretase (BACE)” (Jansssen Pharmaceutica N.V., priority 2004, dated 2013):

Molecular target: T1, β-secretase(BACE) (Homo sapiens, UniProt P56817)
T1 construct: purchased Panvera
Experiment: BACE FS1% Inhibition Assay
Assay type: biochemical
Settings: FS1 substrate; for % Inhibition (FS) 0.3 μM / inhibition at 0.3 µM: 0.3 μM test compound; for % Inhibition (FS) 1 μM / inhibition at 1 µM: 1 μM test compound; for % Inhibition (FS) 3 μM / inhibition at 3 µM: 3 μM test compound; for inhibition at 0.3 µM: read-out: % Inhibition (FS) 0.3 μM; for inhibition at 1 µM: read-out: % Inhibition (FS) 1 μM; for inhibition at 3 µM: read-out: % Inhibition (FS) 3 μM
Procedure, shortened: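 Percent inhibition at each tested concentration, referenced to enzyme-free blank and vehicle-only positive control. Reaction: compound and BACE (4 μg/mL working stock) mixed 20 min at room temperature before FS1 substrate (300 μg/mL working stock), then 1 h at room temperature.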

T1 sequence (P56817 46-501): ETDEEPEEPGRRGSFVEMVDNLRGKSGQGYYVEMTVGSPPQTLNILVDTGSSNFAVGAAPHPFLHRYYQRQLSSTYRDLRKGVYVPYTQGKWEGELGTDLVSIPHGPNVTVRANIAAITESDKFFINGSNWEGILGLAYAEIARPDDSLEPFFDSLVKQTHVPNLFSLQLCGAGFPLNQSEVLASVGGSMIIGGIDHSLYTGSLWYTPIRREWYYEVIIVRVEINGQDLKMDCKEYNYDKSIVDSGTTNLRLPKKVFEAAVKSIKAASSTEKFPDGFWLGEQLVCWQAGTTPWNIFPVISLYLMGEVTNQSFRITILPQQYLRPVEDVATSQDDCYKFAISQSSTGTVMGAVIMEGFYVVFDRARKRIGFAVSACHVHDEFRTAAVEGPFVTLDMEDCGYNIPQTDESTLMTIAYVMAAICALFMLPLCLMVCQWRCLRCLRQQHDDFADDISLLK

Structure (SMILES)	% Inhibition (FS) 0.3 μM [%]	% Inhibition (FS) 1 μM [%]	% Inhibition (FS) 3 μM [%]	other results
CCCC=Cc1ccc2c(c1)CN(CCNC(=O)c1cc(C)oc1C)C(N)=N2 [Compound 587]	<30	<30	<30	–
CC(=O)c1cccc(-c2ccc3c(c2)CN(CCNC(=O)c2cc(C)oc2C)C(N)=N3)c1 [Compound 588]	<30	<30	<30	–
Cc1cc(C(=O)NCCN2Cc3cc(-c4cccc(CO)c4)ccc3N=C2N)c(C)o1 [Compound 589]	<30	<30	<30	–
Cc1cc(C(=O)NCCN2Cc3cc(-c4cccc(C(F)(F)F)c4)ccc3N=C2N)c(C)o1 [Compound 590]	<30	<30	<30	–
CC(=O)Nc1ccc(C(=O)NCCN2Cc3cc(-c4ccccc4)ccc3N=C2N)cc1 [Compound 591]	<30	<30	<30	–
CCCC=Cc1ccc2c(c1)CN(CCNC(=O)c1ccc(NC(C)=O)cc1)C(N)=N2 [Compound 592]	<30	<30	<30	–
CC(=O)Nc1ccc(C(=O)NCCN2Cc3cc(-c4cccc(CO)c4)ccc3N=C2N)cc1 [Compound 593]	<30	<30	<30	–
CC(=O)Nc1ccc(C(=O)NCCN2Cc3cc(-c4cccc(C(F)(F)F)c4)ccc3N=C2N)cc1 [Compound 594]	<30	<30	<30	–
NC1=Nc2ccc(-c3ccccc3)cc2CN1CCNC(=O)Cc1ccccc1 [Compound 595]	32	70	104	–
CCCC=Cc1ccc2c(c1)CN(CCNC(=O)Cc1ccccc1)C(N)=N2 [Compound 596]	<30	<30	<30	–
CC(=O)c1cccc(-c2ccc3c(c2)CN(CCNC(=O)Cc2ccccc2)C(N)=N3)c1 [Compound 598]	<30	<30	36	–
NC1=Nc2ccc(-c3cccc(CO)c3)cc2CN1CCNC(=O)Cc1ccccc1 [Compound 599]	<30	<30	65	–
NC1=Nc2ccc(-c3cccc(C(F)(F)F)c3)cc2CN1CCNC(=O)Cc1ccccc1 [Compound 600]	<30	<30	41	–
CCCC(CNC(=O)C12CC3CC(CC(C3)C1)C2)N1Cc2cc(Oc3ccccc3)ccc2N=C1N (stereo not shown) [Compound 602]	–	–	–	% Inhibition (FS) 0.3 μM (0.3 µM): 78%; % Inhibition (FS) 1 μM (1 µM): 113%; % Inhibition (FS) 3 μM (3 µM): 121%
CCC[C@H](CNC(=O)CCC(C)C)N1Cc2cc(Oc3ccccc3)ccc2N=C1N [Compound 603]	101	114	122	–
NC1=Nc2ccc(Oc3ccccc3)cc2CN1C(Cc1ccccc1)c1ocnc1C(=O)NC1CCCCC1 (stereo not shown) [Compound 606, 5-[1-(2-Amino-6-phenoxy-4H-quinazolin-3-yl)-2-phenyl-ethyl]-oxazole-4-carboxylic acid cyclohexylamide]	–	–	–	inhibition at 0.3 µM: < 30%; inhibition at 1 µM: < 30%; inhibition at 3 µM: 56%
COc1ccccc1-c1ccc2c(c1)CN(Cc1cccc(C(=O)N(C)C3CCCCC3)c1)C(NC(C)=O)=N2 [Compound 607]	94	116	123	–
NC1=Nc2ccc(Oc3ccccc3)cc2CN1C1CCCN(C(=O)C2CCCCC2)C1 (stereo not shown) [Compound 611]	<30	36	<30	–
CCCC(CCC)C(=O)N1CCCC(N2Cc3cc(Oc4ccccc4)ccc3N=C2N)C1 (stereo not shown) [Compound 612]	<30	34	<30	–
CC(C)CCC(=O)N1CCCC(N2Cc3cc(Oc4ccccc4)ccc3N=C2N)C1 (stereo not shown) [Compound 613]	36	31	<30	–
NC1=Nc2ccc(Oc3ccccc3)cc2CN1C(CNC(=O)C1CCCCC1)Cc1ccc(O)cc1 (stereo not shown) [Compound 614]	<30	<30	<30	–
CC(C)CCC(=O)NCC(Cc1ccc(O)cc1)N1Cc2cc(Oc3ccccc3)ccc2N=C1N (stereo not shown) [Compound 615]	<30	<30	<30	–
NC1=Nc2ccc(Oc3ccccc3)cc2CN1C(CNC(=O)C1CCCCC1)Cc1ccc(O)cc1 (stereo not shown) [Compound 616]	–	–	<30	–

Structure (SMILES)	% Inhibition (FS) 0.3 μM [%]	% Inhibition (FS) 1 μM [%]	% Inhibition (FS) 3 μM [%]	other results
COc1ccccc1-c1ccc2c(c1)N=C(N)N(CCC(=O)NC1C3CC4CC(C3)CC1C4)C2 (stereo not shown) [Compound 617, N-Adamantan-2-yl-3-[2-amino-7-(2-methoxy-phenyl)-4H-quinazolin-3-yl]-propionamide]	–	–	–	inhibition at 0.3 µM: < 30%; inhibition at 1 µM: 34%; inhibition at 3 µM: 41%
COc1ccccc1-c1cc2c(cc1F)CN(CCC(=O)NC1C3CC4CC(C3)CC1C4)C(N)=N2 (stereo not shown) [Compound 620]	<30	<30	37	–
NC1=Nc2ccc(-c3ccc(F)cc3)cc2CN1CCNC(=O)C1CCCCC1 [Compound 623]	<30	–	–	% Inhibition (FS) 1 μM (1 µM): <30%; % Inhibition (FS) 3 μM (3 µM): 82%
NC1=Nc2ccc(-c3ccc(F)cc3)cc2CN1CCNC(=O)C1CCCCC1 [Compound 624]	<30	–	–	% Inhibition (FS) 1 μM (1 µM): 38%; % Inhibition (FS) 3 μM (3 µM): 78%
NC1=Nc2ccc(-c3ccc(Cl)cc3)cc2CN1CCNC(=O)C1CCCCC1 [Compound 626]	<30	<30	56	–
Cc1ccc(-c2ccc3c(c2)CN(CCNC(=O)C2CCCCC2)C(N)=N3)cc1 [Compound 628]	<30	<30	32	–
COc1ccc(C)cc1-c1ccc2c(c1)CN(CCNC(=O)C1CCCCC1)C(N)=N2 [Compound 630]	<30	<30	48	–
COc1ccc(F)cc1-c1ccc2c(c1)CN(CCNC(=O)C1CCCCC1)C(N)=N2 [Compound 631]	<30	<30	48	–
CN(C(=O)CCC(C1CCCCC1)N1Cc2cc(Oc3ccccc3)ccc2N=C1N)C1CCOCC1 (stereo not shown) [Compound 633]	<30	30	70	–
NC1=Nc2ccc(Oc3ccccc3)cc2CN1C[C@H](NC(=O)C1CCCCC1)C1CCCCC1 [Compound 636, (R)-enantiomer of cyclohexanecarboxylic acid [2-(2-amino-6-phenoxy-4H-quinazolin-3-yl)-1-cyclohexyl-ethyl]-amide]	–	–	–	inhibition at 0.3 µM: < 30%; inhibition at 1 µM: < 30%; inhibition at 3 µM: 30%
NC1=Nc2ccc(Oc3ccccc3)cc2CN1CC(NC(=O)C1CCCCC1)C1CCCCC1 (stereo not shown) [Compound 637]	<30	<30	73	–
CN(C(=O)CCC(C1CCCCC1)N1Cc2cc(Oc3ccccc3)ccc2N=C1N)C1CCC(O)CC1 (stereo not shown) [Compound 639]	<30	<30	48	–
NC1=Nc2ccc(Oc3ccccc3)cc2CN1Cc1ocnc1C(=O)NC1CCCCC1 [Compound 640]	<30	<30	<30	–
CN(C(=O)c1ncoc1CN1Cc2cc(Oc3ccccc3)ccc2N=C1N)C1CCCCC1 [Compound 641]	<30	<30	48	–
NC1=Nc2ccc(-c3ccccc3F)cc2CN1CCNC(=O)C1CCC1 [Compound 642]	37	63	96	–
NC1=Nc2ccc(-c3ccccc3F)cc2CN1CCNC(=O)C1CCCC1 [Compound 643]	74	92	110	–
NC1=Nc2ccc(-c3ccccc3F)cc2CN1CCNC(=O)C12CC3CC(CC(C3)C1)C2 [Compound 644]	46	72	104	–
CCCC(=O)NCCN1Cc2cc(-c3ccccc3F)ccc2N=C1N [Compound 645]	67	57	91	–
CC(C)(C)C(=O)NCCN1Cc2cc(-c3ccccc3F)ccc2N=C1N [Compound 646]	52	72	97	–
CCCCC(CC)C(=O)NCCN1Cc2cc(-c3ccccc3F)ccc2N=C1N (stereo not shown) [Compound 648]	39	74	104	–
NC1=Nc2ccc(-c3ccccc3Cl)cc2CN1CCNC(=O)C1CCC1 [Compound 649]	34	65	95	–
NC1=Nc2ccc(-c3ccccc3Cl)cc2CN1CCNC(=O)C1CCCC1 [Compound 650]	72	94	112	–
